From US20220306695A1, “COMPSTATIN ANALOGUES AND THEIR MEDICAL USES” (priority 2019, published 2022)
Like-named read-outs stand apart in the source and are kept apart here. Starred links: 1 amine or outer side, 2 acyl side, 3 side chain; linkers in the order of their positions; H or OH if unused. Positions of bridges follow the written chain, without caps; N, C: chain ends. Non-standard residues stand in square brackets, D forms with d. Residues, ends and D or L forms follow the SMILES beside them. Groups on a side chain read outwards from the residue. *: point of attachment. Trp(1-Me) = Cn1cc(C[C@H](N)C(=O)O)c2ccccc21; Abu(4-yl) = O=C([C@H](CC[*:3])N[*:1])[*:2]; C18 diacid = O=C(O)CCCCCCCCCCCCCCCCC(=O)*; C16 diacid = O=C(O)CCCCCCCCCCCCCCC(=O)*; γGlu = O=C(O)[C@H](CCC(=O)[*:2])N[*:1]; AEEA = NCCOCCOCC(=O)O; Sar = CNCC(=O)O

B1: Compound 100 (peptide)
peptide: Ac-K([AEEA-AEEA-γGlu-C16 diacid])GSAICIWQDWGEHRCTEGE-NH2
modifications: disulfide 6-16
SMILES: CC[C@H](C)[C@H](NC(=O)[C@H](C)NC(=O)[C@H](CO)NC(=O)CNC(=O)[C@H](CCCCNC(=O)COCCOCCNC(=O)COCCOCCNC(=O)CC[C@H](NC(=O)CCCCCCCCCCCCCCC(=O)O)C(=O)O)NC(C)=O)C(=O)N[C@H]1CSSC[C@@H](C(=O)N[C@H](C(=O)N[C@@H](CCC(=O)O)C(=O)NCC(=O)N[C@@H](CCC(=O)O)C(N)=O)[C@@H](C)O)NC(=O)[C@H](CCCNC(=N)N)NC(=O)[C@H](Cc2c[nH]cn2)NC(=O)[C@H](CCC(=O)O)NC(=O)CNC(=O)[C@H](Cc2c[nH]c3ccccc23)NC(=O)[C@H](CC(=O)O)NC(=O)[C@H](CCC(N)=O)NC(=O)[C@H](Cc2c[nH]c3ccccc23)NC(=O)[C@H]([C@@H](C)CC)NC1=O

Legend:
[1] = format: physicochemical; settings: 50 mg/mL peptide; for Covalent oligomer content after 14 days 40° C. (%), F1 / Purity after 14 days 40° C. (%), F1: F1: 20 mM phosphate pH 5.5; for Covalent oligomer content after 14 days 40° C. (%), F1 / Covalent oligomer content after 14 days 40° C. (%), F2: denaturing SEC; for Purity after 14 days 40° C. (%), F1 / Purity after 14 days 40° C. (%), F2 / Purity after 14 days 40° C. (%), F3: normalized purity (HPLC)
Experimental: Chemical stability of compstatin analogues with cystathionine or disulfide bridge. Stability was assessed in three formulations at 50 mg/mL peptide, F1:20 mM phosphate pH 5.5, F2:20 mM phosphate pH 6.5 and F3:20 mM phosphate pH 7.5. The formulations were prepared by direct dissolution of peptide from lyophilized portions in the respective formulations. pH was adjusted to target with 1 M NaOH and 1 M HCl. Chemical stability was assessed under accelerated conditions (14 days, 40° C.) and evaluated as change in purity by reverse phase HPLC, and change in covalent oligomer content by denaturing SEC. The formulations were placed at 40° C. with analysis points at T=0, 7 and 14 days. On each time point a small volume was extracted and diluted to 2 mg/mL and tested by reverse phase HPLC and denaturing SEC. Purity was assessed by reverse phase HPLC using an Ultimate 3000 system for binary gradient application equipped with a Kinetix C18 column (cat. no. 00F-4462-Y0, 150 mm×3 mm, 2.6 μm) run at 0.5 ml/min with a gradient of buffer A (0.3% TFA, aq.) and buffer B (0.3% TFA, 90% MeCN, aq.) gradient from 40% B to 70% B over 20 min. Detection was done using a diode array detector set to 220 nm. Covalent oligomer formation was assessed by denaturing SEC (size exclusion chromatography) using an Ultimate 3000 system equipped with a TSKgel SuperSW 2000 column (cat. no. 818674, 300 mm×3 mm, 4 μm) run at 0.5 ml/min with isocratic flow of buffer A (0.1% TFA, 45% MeCN, aq.), 10 min. Detection was done using a diode array detector set to 215 nm. Compounds 126 and 156 were carefully weighed out and dissolved in formulations F1, F2 and F3 to a target concentration of 50 mg/mL. Once visually dissolved, concentration was confirmed by absorbance at 280 nm, and samples were placed in stability at 40° C. Samples for analysis were extracted on T=0, 7 and 14 days from a 40° C. climate chamber. The extracted volume was dissolved 1:25 (final concentration: 2 mg/mL) in 20 mM phosphate pH 5.5, 6.5 or 7.5 and measured by reverse phase HPLC and denaturing SEC by injection of 0.4 μL (column load […]). The resulting chromatograms were integrated to determine chemical purity by reverse phase HPLC and covalent oligomer content by denaturing SEC.

[2] = tested on: classical complement pathway; assay: In vitro haemolysis assay (inhibition of classical complement pathway); format: cell-based, human; settings: Table 3; human serum, sensitized sheep red blood cells; read-out: IC50[nM], in vitro analysis of inhibition of hemolysis
Summary of the method: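 Serially diluted compound (9 points) was preincubated 15 min at room temperature with diluted human serum, titrated per batch to give 70-90% maximal haemolysis, in Tris/casein buffer pH 7.4 with Mg2+/Ca2+. Antibody-sensitized sheep erythrocytes were then added for 30 min at 37° C, and the reaction was stopped with EDTA. Haemolysis was read at A405, with IC50 from 4PL fit.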

Human C3 = Human C3 (human, UniProt P01024 23-1663); assay: cell-based or functional assay
Human C3, sequence (P01024 23-1663 limits assumed): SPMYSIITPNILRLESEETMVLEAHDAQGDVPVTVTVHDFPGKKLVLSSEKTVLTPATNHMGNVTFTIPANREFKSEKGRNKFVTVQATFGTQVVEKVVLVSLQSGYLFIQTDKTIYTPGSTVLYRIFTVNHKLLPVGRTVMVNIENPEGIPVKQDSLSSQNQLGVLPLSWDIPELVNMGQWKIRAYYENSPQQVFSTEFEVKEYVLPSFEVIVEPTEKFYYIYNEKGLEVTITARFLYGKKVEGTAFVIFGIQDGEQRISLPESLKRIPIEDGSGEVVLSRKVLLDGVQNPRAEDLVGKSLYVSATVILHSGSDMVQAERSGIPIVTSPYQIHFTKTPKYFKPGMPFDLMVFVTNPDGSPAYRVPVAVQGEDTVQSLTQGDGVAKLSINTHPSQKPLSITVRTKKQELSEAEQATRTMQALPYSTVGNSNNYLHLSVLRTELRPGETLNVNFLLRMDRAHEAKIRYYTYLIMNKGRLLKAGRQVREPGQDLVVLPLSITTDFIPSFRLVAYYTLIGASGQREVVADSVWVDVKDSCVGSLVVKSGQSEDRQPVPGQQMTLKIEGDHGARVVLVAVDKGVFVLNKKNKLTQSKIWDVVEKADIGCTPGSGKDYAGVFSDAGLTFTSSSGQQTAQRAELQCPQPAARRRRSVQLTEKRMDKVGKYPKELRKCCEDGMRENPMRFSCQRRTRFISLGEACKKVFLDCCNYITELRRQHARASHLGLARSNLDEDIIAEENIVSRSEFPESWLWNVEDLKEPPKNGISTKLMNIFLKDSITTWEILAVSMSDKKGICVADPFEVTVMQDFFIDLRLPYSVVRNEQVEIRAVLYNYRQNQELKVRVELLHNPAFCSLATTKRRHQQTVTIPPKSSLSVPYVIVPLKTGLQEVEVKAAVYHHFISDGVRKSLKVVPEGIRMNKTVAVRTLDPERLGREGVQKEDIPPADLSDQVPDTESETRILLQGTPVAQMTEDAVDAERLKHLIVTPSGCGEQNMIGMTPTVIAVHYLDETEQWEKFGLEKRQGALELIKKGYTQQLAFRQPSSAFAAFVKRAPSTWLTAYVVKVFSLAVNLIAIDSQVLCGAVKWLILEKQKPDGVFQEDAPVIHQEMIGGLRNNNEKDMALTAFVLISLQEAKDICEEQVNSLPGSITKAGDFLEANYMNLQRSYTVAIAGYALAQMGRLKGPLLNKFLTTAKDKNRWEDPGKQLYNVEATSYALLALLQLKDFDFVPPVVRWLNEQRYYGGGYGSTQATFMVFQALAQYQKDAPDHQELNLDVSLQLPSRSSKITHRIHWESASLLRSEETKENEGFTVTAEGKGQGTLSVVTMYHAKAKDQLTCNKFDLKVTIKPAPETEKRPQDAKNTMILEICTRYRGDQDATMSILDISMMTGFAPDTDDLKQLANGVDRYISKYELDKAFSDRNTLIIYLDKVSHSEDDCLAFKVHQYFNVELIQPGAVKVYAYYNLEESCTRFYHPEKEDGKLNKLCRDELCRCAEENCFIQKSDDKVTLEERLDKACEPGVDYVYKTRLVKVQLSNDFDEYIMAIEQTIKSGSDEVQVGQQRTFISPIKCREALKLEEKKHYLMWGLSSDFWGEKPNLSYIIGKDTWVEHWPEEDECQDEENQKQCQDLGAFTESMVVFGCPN

Molecule | Covalent oligomer content after 14 days 40° C. (%), F1 [1] [%] | Purity after 14 days 40° C. (%), F1 [1] [%] | Covalent oligomer content after 14 days 40° C. (%), F2 ([1]; F2: 20 mM phosphate pH 6.5) [%] | Purity after 14 days 40° C. (%), F2 ([1]; F2: 20 mM phosphate pH 6.5) [%] | Covalent oligomer content after 14 days 40° C. (%), F2 ([1]; F3: 20 mM phosphate pH 7.5) [%] | Purity after 14 days 40° C. (%), F3 ([1]; F3: 20 mM phosphate pH 7.5) [%] | IC50 [2] [nM] | IC50[nM], inhibition of hemolysis (Human C3) [nM]
CC[C@H](C)[C@@H]1NC(=O)[C@@H](NC(=O)[C@H](Cc2ccccc2)NC(=O)[C@H](CCC(=O)O)NC(=O)[C@H](CO)NC(C)=O)CSCC[C@@H](C(=O)N(C)CC(=O)N[C@@H](CCC(=O)O)C(=O)NCC(=O)N[C@@H](CCC(=O)O)C(=O)NCCOCCOCC(=O)NCCOCCOCC(=O)N[C@@H](CCCCNC(=O)CC[C@H](NC(=O)CNC(=O)CC[C@H](NC(=O)CCCCCCCCCCCCCCCCC(=O)O)C(=O)O)C(=O)O)C(N)=O)NC(=O)[C@H](CCCNC(=N)N)NC(=O)[C@H](Cc2c[nH]cn2)NC(=O)[C@H](CCC(=O)O)NC(=O)CNC(=O)[C@H](Cc2c[nH]c3ccccc23)NC(=O)[C@H](CCC(=O)O)NC(=O)[C@H](CCC(N)=O)NC(=O)[C@H](Cc2cn(C)c3ccccc23)NC1=O [Compound 153] (Ac-SEFCI[Trp(1-Me)]QEWGEHR[Abu(4-yl)][Sar]EGE[AEEA][AEEA]K([γGlu-Gly-γGlu-C18 diacid])-NH2; thioether 4-14) | 0.7 | 97 | 0.5 | 99 | 0.3 | 99 | < 100 | 
CC[C@H](C)[C@@H]1NC(=O)[C@@H](NC(=O)[C@H](Cc2ccccc2)NC(=O)[C@H](CCC(=O)O)NC(=O)[C@H](CO)NC(C)=O)CSSC[C@@H](C(=O)N[C@H](C(=O)N[C@@H](CCC(=O)O)C(=O)NCC(=O)N[C@@H](CCC(=O)O)C(=O)NCCOCCOCC(=O)NCCOCCOCC(=O)N[C@@H](CCCCNC(=O)CC[C@H](NC(=O)CNC(=O)CC[C@H](NC(=O)CCCCCCCCCCCCCCCCC(=O)O)C(=O)O)C(=O)O)C(N)=O)[C@@H](C)O)NC(=O)[C@H](CCCNC(=N)N)NC(=O)[C@H](Cc2c[nH]cn2)NC(=O)[C@H](CCC(=O)O)NC(=O)CNC(=O)[C@H](Cc2c[nH]c3ccccc23)NC(=O)[C@H](CC(=O)O)NC(=O)[C@H](CCC(N)=O)NC(=O)[C@H](Cc2cn(C)c3ccccc23)NC1=O [Compound 126] (Ac-SEFCI[Trp(1-Me)]QDWGEHRCTEGE[AEEA][AEEA]K([γGlu-Gly-γGlu-C18 diacid])-NH2; disulfide 4-14) | 66 | 45 | 54 | 47 | 41 | 57 | < 100 | 
B1 |  |  |  |  |  |  |  | < 500
